“Also recorded” adds a separate entry of the source. Where two headings read alike, the source gives them in different places. One block for each compound: values may come before it.
Key:
[1] = target: SlSCPx-2 (Spodoptera litura, UniProt D1GJ60); test: 1,8-ANS fluorescence displacement (competitive binding) assay, wild type rSlSCPx-2; conditions: for RBAchol / RBApal: IC50 of wild type for the same ligand (=100%)
Method: Binding of the fluorescent probe 1, 8-ANS to sterol carrier protein (SlSCPx-2) is measured by relative increase in fluorescent intensity. Steady-state fluorescence spectra were measured on a Cary Eclipse fluorescence spectrophotometer (Varian, Mulgrave, Australia) using a 1-cm path length cuvette. The binding was monitored by measuring the fluorescence signal between 400 and 600 nm following excitation at 350 nm. Slit widths were set to 5 and 10 nm for the excitation and emission monochromators, respectively. […] All measurements were performed at room temperature and the samples were equilibrated for 5 min prior to measurement. At each of the given concentrations, at least three replicates were performed.
(§1) After the incubation, each potential ligand at a serial of concentration (0–100 µM) was added into the 1, 8-ANS-protein mixture for another 2.5 min and the fluorescence intensity of the 1,8-ANS-protein complex was measured as previously described. The control was the reaction of ANS probe and a series of concentration (0–100 µM) of ligands without the protein. To calculate binding activity of the ligands and the protein, the fluorescence intensity of the controls were subtracted from the total fluorescence intensity of the 1, 8-ANS-protein complex in the presence of ligands tested. Each ligand replacement assay was repeated for three times.

[2] = tested on: S. litura larvae; test: Diet bioassay for inhibition of growth of S. litura larvae; format: in vivo, Spodoptera litura; conditions: for inhibitory effect on the growth of S. litura larvae: newly hatched larvae, artificial diet with 3, 12 and 48 µg/g diet; for body weight of the treated larvae: 13 days post egg hatching, increasing concentrations 3, 12, 48 µg/g diet, compared to the control
Method: Newly hatched S. litura larvae (30 larvae per treatment) were reared in artificial diet in presence of each chemical at different concentrations of 3, 12 and 48 µg/g diet. Control larvae were fed in the diet with diluted acetone (solvent for the chemical). Fresh diet was provided every other day. Larvae development was monitored until pupation. Larvae were weighted at 13 days post egg hatching when most of the larvae were at 5th instar stage.

[3] = tested on: A. aegypti; design: method as in PMID 15627652; conditions: cited from earlier work
[4] = tested on: H. armigera neonates; conditions: cited from earlier work
[5] = target: SlSCPx-2 W66E (Spodoptera litura, UniProt D1GJ60, W456E); test: biochemical; format: binding
Method: (§2) Binding of the fluorescent probe 1, 8-ANS to SlSCPx-2 can be competed with physiological ligands. SlSCPx-2 at 15 µM was incubated with 1, 8-ANS at 15 µM in the reaction buffer (pH 7.0) at room temperature for 2.5 min. […] […] To calculate binding activity of the ligands and the protein, the fluorescence intensity of the controls were subtracted from the total fluorescence intensity of the 1, 8-ANS-protein complex in the presence of ligands tested. Each ligand replacement assay was repeated for three times.
(§3) Various mutations in His-tagged SlSCPx-2 were constructed by using the Stratagene QuickChange Site-Directed Mutagenesis Kit (TAKARA, Dalian, China). Recombined plasmid containing SlSCPx-2 fused with the His-Tag sequence in a pPROEXTM HTa vector was used as a template. Two complementary primer pairs containing the desired mutations were used to construct each gene mutant. All mutant sequences were confirmed by DNA sequencing. The binding affinity of the mutants with the various ligands was examined using the fluorescence displacement assay as described above.

[6] = target: SlSCPx-2 I115M (Spodoptera litura, UniProt D1GJ60, I505M); test: biochemical; format: binding
Method: as §2, §3

[7] = target: SlSCPx-2 F53A (Spodoptera litura, UniProt D1GJ60, F443A); test: biochemical; format: binding
Method: as §2, §3

[8] = target: SlSCPx-2 F110W (Spodoptera litura, UniProt D1GJ60, F500W); test: biochemical; format: binding
Method: as §2, §3

[9] = target: SlSCPx-2 F89A (Spodoptera litura, UniProt D1GJ60, F479A); test: biochemical; format: binding
Method: as §2, §3

[10] = target: SlSCPx-2 Q131A (Spodoptera litura, UniProt D1GJ60, Q521A); test: biochemical; format: binding
Method: as §2, §3

[11] = target: SlSCPx-2 F53W (Spodoptera litura, UniProt D1GJ60, F443W); test: biochemical; format: binding
Method: as §2, §3

[12] = target: SlSCPx-2 F89W (Spodoptera litura, UniProt D1GJ60, F479W); test: biochemical; format: binding
Method: as §1, with “Binding of the fluorescent probe 1, 8-ANS to SlSCPx-2 can be competed with physiological ligands. SlSCPx-2 at 15 µM was incubated with 1, 8-ANS at 15 µM in the reaction buffer (pH 7.0) at room temperature for 2.5 min. After” for “After”
as §3

[13] = target: SlSCPx-2 T128A (Spodoptera litura, UniProt D1GJ60, T518A); test: biochemical; format: binding
Method: as §1, with “Binding of the fluorescent probe 1, 8-ANS to SlSCPx-2 can be competed with physiological ligands. SlSCPx-2 at 15 µM was incubated with 1, 8-ANS at 15 µM in the reaction buffer (pH 7.0) at room temperature for 2.5 min. After” for “After”
as §3

[14] = target: SlSCPx-2 F110A (Spodoptera litura, UniProt D1GJ60, F500A); test: biochemical; format: binding
Method: as §1, with “Binding of the fluorescent probe 1, 8-ANS to SlSCPx-2 can be competed with physiological ligands. SlSCPx-2 at 15 µM was incubated with 1, 8-ANS at 15 µM in the reaction buffer (pH 7.0) at room temperature for 2.5 min. After” for “After”
as §3

[15] = wild type, displacement of 15 µM 1,8-ANS from 15 µM SlSCPx-2, pH 7.0, read-out: IC50
[16] = IC50 of cholesterol (=100%) divided by IC50 of each chemical

Structure (SMILES): C=CCc1cccc(/C=N/NC(=O)COc2ccccc2C)c1O [AG-205/07775053]
RBA (relative binding affinity) [1]: 0.6% | IC50 [1, 15]: 8630 ± 393 µM | inhibitory effect on the growth of S. litura larvae [2]: inhibited the growth; also recorded: high inhibitory effect; also recorded: had inhibitory effect

Structure (SMILES): CCCCCCOC(=O)c1ccc(NC(=O)CCC)cc1 [AG-205/36813059]
RBA (relative binding affinity) [1]: 210% | IC50 [1, 15]: 23.9 ± 1.38 µM | inhibitory effect on the growth of S. litura larvae [2]: inhibited the growth; also recorded: a certain degree of biological activity; also recorded: had inhibitory effect

Structure (SMILES): Cc1cc(OCCCCc2c(C)n[nH]c2C)ccc1Cl [AG-664/14117324]
RBA (relative binding affinity) [1]: 1943% | IC50 [1, 15]: 2.58 ± 0.2 µM | body weight of the treated larvae [2]: decreased, significantly | inhibitory effect on the growth of S. litura larvae [2]: inhibited the growth; also recorded: had inhibitory effect

Structure (SMILES): CCc1ccc(C(=O)/C=C/Nc2ccc(NC(C)=O)cc2)cc1 [AH-487/41731687]
RBA (relative binding affinity) [1]: 1166% | IC50 [1, 15]: 4.3 ± 0.63 µM | body weight of the treated larvae [2]: decreased, significantly | inhibitory effect on the growth of S. litura larvae [2]: inhibited the growth; also recorded: had inhibitory effect

Structure (SMILES): CC(=O)Nc1ccc(Nc2nc(-c3ccc(Cl)c(Cl)c3)cs2)cc1 [AeSCPI-1, reference compound]
time to kill the larvae post the treatment ([3]; A. aegypti larvae): ≤ 3 days | RBA (relative binding affinity) [1]: 31% | IC50 [1, 15]: 161 ± 5.03 µM | lethality to H. armigera neonates [4]: lethal

Structure (SMILES): COc1cccc(-n2sc3c(c2=S)-c2cc(Cl)ccc2NC3(C)C)c1 [AeSCPI-2, reference compound]
mortality in A. aegypti [3]: caused death at larva-to-pupa transition period | RBA (relative binding affinity) [1]: 91% | IC50 [1, 15]: 55 ± 0.66 µM

IC50 [1]: 18.1 ± 0.83 µM | RBA (relative binding affinity) [1, 16]: 277%
Structure (SMILES): CCCCC/C=C\C/C=C\C/C=C\C/C=C\CCCC(=O)O [Arachidonate, arachidonic acid]

Structure (SMILES): CC(C)CCC[C@@H](C)[C@H]1CC[C@H]2[C@@H]3CC=C4C[C@@H](O)CC[C@]4(C)[C@H]3CC[C@]12C [Cholesterol, reference compound]
IC50 [5]: 974 ± 10.7 µM | IC50 [6]: 34.3 ± 1.53 µM | IC50 [7]: 7300 ± 280 µM | IC50 [8]: 231 ± 2.36 µM | IC50 [9]: 1743 ± 1.3 µM | IC50 [10]: 2690 ± 34.2 µM | IC50 [11]: 4669 ± 23.2 µM | IC50 [12]: 5.58 ± 1.23 µM | IC50 [13]: 20.8 ± 1.32 µM | RBAchol / RBApal ([1]; wild type): 100% | IC50 [1, 15]: 50.1 ± 0.8 µM

Structure (SMILES): CC(C)[C@@H](C)/C=C/[C@@H](C)[C@H]1CC[C@H]2C3=CC=C4C[C@@H](O)CC[C@]4(C)[C@H]3CC[C@]12C [Ergosterol]
IC50 [1]: 167.6 ± 0.34 µM | RBA (relative binding affinity) [1]: 30%

Structure (SMILES): CCCCC/C=C\C/C=C\CCCCCCCC(=O)O [Linoleic acid]
RBA (relative binding affinity) [1]: 35% | IC50 [1, 15]: 143 ± 0.99 µM

RBA (relative binding affinity) [1, 16]: 23% | IC50 [1, 15]: 217.9 ± 1.53 µM
Structure (SMILES): CCCCCCCC(=O)O [Octanoate, reference compound]

Structure (SMILES): CCCCCCCC/C=C\CCCCCCCC(=O)O [Oleic acid]
IC50 [1]: 24.4 ± 1.14 µM | RBA (relative binding affinity) [1]: 206%

Structure (SMILES): CCCCCCCCCCCCCCCC(=O)O [Palmitic acid]
IC50 [5]: 67.3 ± 3.43 µM | IC50 [6]: 6617 ± 38.2 µM | IC50 [7]: 71.7 ± 0.84 µM | IC50 [8]: 503.3 ± 2.7 µM | IC50 [10]: 354.8 ± 2.55 µM | IC50 [11]: 5777 ± 28 µM | IC50 [12]: 77.5 ± 1.51 µM | IC50 [14]: 41.7 ± 1.62 µM | IC50 [13]: 32.8 ± 1.52 µM | RBA (relative binding affinity) [1]: 85% | RBAchol / RBApal ([1]; wild type): 100% | IC50 [1, 15]: 59.1 ± 1.29 µM

Structure (SMILES): CCCCCCCCCCCCCCCCCC(=O)O [Stearic acid]
RBA (relative binding affinity) [1]: 126% | IC50 [1, 15]: 39.8 ± 1.17 µM

Structure (SMILES): CC[C@H](/C=C/[C@@H](C)[C@H]1CC[C@H]2[C@@H]3CC=C4C[C@@H](O)CC[C@]4(C)[C@H]3CC[C@]12C)C(C)C [Stigmasterol]
IC50 [1]: 190 ± 2.29 µM | RBA (relative binding affinity) [1]: 26%
